# Data reported in patent US20240279201A1, “DUAL WNT SIGNALING PATHWAY INHIBITORS AND AMPK ACTIVATORS FOR TREATMENTS OF DISEASE” (priority 2021, published 2024).
# “And” between values parts separate entries of the source, which are not always exact repeats. Equal entries are not always repeated. “Also recorded” adds a separate entry of the source.
# Assays:
# [1] = test system: Wnt/β-Catenin signaling pathway; assay: Wnt signaling luciferase (TOPflash) reporter gene assay; assay type: cell-based; settings: luciferase reporter gene assay; mean of three independent experiments; read-out: IC50 (nM) to inhibit the Wnt signaling activity
# Text: A dual-luciferase gene reporter assay was used to test inhibitory activities of new compounds on Wnt signaling. […] Therefore, the effects of new compounds on AMPK was examined. […]
# [2] = Cytotoxicity (CC50) during the luciferase gene reporter assay; assay type: cell-based; settings: human, HEK293 cells; short treatment duration of the luciferase gene reporter assay
# [3] = Pharmacokinetic (PK) studies, oral dose; settings: C57/BL6, mouse, blood, 5 mg/kg
# Method: The ADMET and PK properties of YA6060 was determined.
# PK/Tox. The four selected compounds from in vitro evaluation above are subjected to PK and toxicity assessment in C57/BL6 mice. […] Compound concentrations is determined by LC/MS/MS. PK analysis is carried out on Phoenix Winnolin using non-compartmental analysis and compartment models. Compound accumulation in major tissues, including liver, kidney, heart, brain and intestine, are quantified. […] For study ii, a half number of mice per group are sacrificed immediately after the 3-week course and the remaining after a 2-week washout period to assess delayed toxicity. In toxicity studies, blood is collected upon euthanasia for liver and renal chemistries and complete blood counts, and major organs harvested and examined macro- and microscopically by veterinarian pathologists. It is expected that an understanding of PK properties, such as bioavailability, AUC, clearance, and toxic effects, such as general tolerance and specific toxicity in the liver, kidney, other major organs, and particularly Wnt-dependent tissues, such as intestine, stomach, and skin is established for these selected compounds.
# [4] = Toxicity evaluation in mice (oral gavage); assay type: in vivo
# Method: FIG. 8 illustrates the preliminary toxicity evaluated for YA6060 in major mouse organs. […] 11 weeks C57BL/6 mice were treated for […]. The isolated tissues were stained by Haematoxylin and Eosin (H&E). The images were taken under an amplification of 20×.
# Body weight change was measured over time in mice received YA6060. […]
# TGF-β-treated LX-2 cells = assay: Anti-fibrotic efficacy in TGF-β-treated LX-2 cells; assay type: cell-based; settings: 24 hours
# Method: FIG. 9A-FIG. 9C illustrate the anti-fibrotic efficacy of YA6060 in LX-2 cells. LX-2 cells were exposure to TGF-beta with and without different concentrations of YA6060 for 24 hours. FIG. 9A is a gel illustrating Western blot results. FIG. 9B and FIG. 9C are graphs of experimental data illustrating RT-PCR results. FIG. 14A-FIG. 14C illustrate the anti-fibrotic efficacy of YA6060 in LX-2 cells. The effect of YA6060 treatment on the expression of fibrotic markers in LX-2 cells was examined. LX-2 cells were treated with TGF-beta to model fibrosis. FIG. 14A is an image of a Western blot illustrating protein expression of collagen 1, vimentin, and alpha-SMA. […] FIG. 14C is a graph of experimental data illustrating mRNA expression of genes associated with inflammation by RT-PCR. The cells were treated with the indicated concentrations of YA6060 for 24 hours. *P<0.05, **P<0.01. […] The effect of YA6060 treatment on the expression of fibrotic markers in LX-2 cells was examined. LX-2 cells were treated with TGF-beta to model fibrosis. Protein expression of collagen 1, vimentin, and alpha-SMA by Western blotting (FIG. 14A). mRNA expression of collagen 1, vimentin, and alpha-SMA by RT-PCR was examined (FIG. 14B). mRNA expression of genes associated with inflammation by RT-PCR was examined (FIG. 14C). The cells were treated with the indicated concentrations of YA6060 for 24 hours. *P<0.05, **P<0.01. […]
# HT29 cells = assay: Viability of HT29 cells; assay type: cell-based; settings: Homo sapiens, HT-29, read-out: IC50, cell viability
# β-catenin = β-catenin (Homo sapiens (Human), UniProt P35222); assay: Western blotting of β-catenin in HEK293 cells; assay type: cell-based; settings: 100 nM, 24 h
# Method: (§1) FIG. 6A-FIG. 6E illustrate the development of Axin stabilizers with dual activities of Wnt inhibition and AMPK activation. […] HEK293 cells were used. B&C: 100 nM compounds, 24 h. FIG. 6D is a table showing the activity profile of YA6060. F=bioavailability; soubility is aqueous solubility.
# (§2) A dual-luciferase gene reporter assay was used to test inhibitory activities of new compounds on Wnt signaling. […] Axin is also reported to form a complex with AMPK and its upstream kinase LKB1 (FIG. 12A and FIG. 12B) to facilitate AMPK activation. Therefore, the effects of new compounds on AMPK was examined. […] YA6060 and its analogs had dual activities of potent Wnt signaling inhibition and AMPK activation, which were dependent on the levels of scaffolding protein Axin.
# AMPK = assay: Western blotting of phosphorylated AMPK in HEK293 cells; assay type: cell-based; settings: 100 nM, 24 h
# Method: as §1, §2
# Hygroscopicity = assay type: physicochemical; settings: HCl salt
# Text: This Example provides evidence to access the therapeutic potential of simultaneously targeting Wnt signaling and AMPK pathways as novel anti-CRC therapeutic strategy. […] In addition, the chemical structure of YA6060 contains multiple C—H bonds that are liable to P450-mediated oxidations in the liver. Therefore, novel YA6060 analogs with acceptable non-hygroscopicity along with excellent metabolic stability are highly desirable for its further development.
# Non-hygroscopic salts of YA6060. YA6060 is an HCl salt with high hygroscopicity. YA6060 can readily absorb moisture from the environment that limits the stability and the further therapeutic application of the compound. Non-hygroscopic salts of YA6060 are generated by screening the anionic of the neutral amino parent YA6060 with a panel of acids that has been reported to form acceptably non-hygroscopic salts. Specific acids include valproic (1), maleic (2), tartaric (3), oxalic (4) and pamoic (5) acids, to get the corresponding salts.
# [5] = Toxicity in normal HEK293 cells; assay type: cell-based; settings: human
# Method: YA6060 has an excellent druglike profile. […] The ADMET and PK properties of YA6060 was determined.
smiles,measurement,setting,value
Cc1ccccc1-n1nnc(C(=O)Nc2ccc3cc(CN4CCNCC4)ccc3n2)c1C [YA6060],IC50,[1],4.3 nM and 4 nM
same,CC50,[2],> 92 µM
same,half-life,[3]; oral,2.67 h
same,Cmax,[3]; po,24000 ng/mL
same,Tmax,[3]; po,1.6 h
same,bioavailability,[3]; po,75%
same,half-life,[3]; po,2.67 h
same,MTD at 21 days,"[4]; C57BL/6, mouse, in vivo, oral, 500 mg/kg, mice, single dose",> 500 mg/kg
same,acute toxicity test (body weight change),"[4]; mouse, in vivo, po",did not exhibit acute toxicity
same,"toxicity / tolerability in mice, histology of major organs","[4]; oral gavage 500 mg/kg once, 21-day evaluation",no obvious toxicity; also recorded: no noticeable toxic effects; also recorded: well tolerated; also recorded: No histological changes
same,safety margin over an efficacy dose (0.5 mg/kg) for liver fibrosis,[4]; single dose of 500 mg/kg,"> 1,000 fold"
same,expression of fibrosis and inflammation markers,TGF-β-treated LX-2 cells,significantly reduced the expression of fibrosis markers
same,IC50,HT29 cells,8.6 µM
same,protein level of β-catenin,β-catenin,decreased
same,levels of phosphorylated AMPK (p-AMPK),AMPK,significantly increased
same,hygroscopicity,Hygroscopicity,highly hygroscopic
same,IC50,[5],> 100 µM
